The subject of series [1] is normal cell lines (HaCat, BJ and NIH 3T3). The series is described as follows: In vitro cytotoxicity assay (LDH leakage), normal cell lines. Particulars: 24 h, 37°C.
Method: The cytotoxicity of peptides to mammalian cells was investigated by assessing the release of lactate dehydrogenase (LDH) from cancer and normal cells. The amount of LDH released from damaged cells into the supernatant was measured using the Cytotoxicity Detection Kit (Roche Applied Science, Germany) according to the manufacturer’s instructions. In brief, cells were plated onto 96-well microplates (1×10^4 cells per well) in complete DMEM supplemented with 10% FBS and incubated overnight at 37°C to allow for attachment and spreading of cells. After 24 h of incubation, cells were treated with various concentrations of peptides (0–100 µM) and incubated for another 24 h at 37°C. The extracellular medium from each well was transferred to a new microplate and incubated for 10 min with 100 µl/well reaction mixture, followed by a stop solution. Absorbance was measured at 490 nm by using an ELISA plate reader. LDH release from cells lysed with 0.2% Triton X-100 in PBS was defined as 100% leakage and LDH release from untreated cells as 0% leakage.
(B,C) In vitro cytotoxicity of peptides. (B) Membrane disturbance was measured by lactate dehydrogenase (LDH) leakage from the indicated cell lines 24 h after peptide treatment. LDH leakage from cells seeded in a 96-well plate at 10,000 cells/well was measured after exposure to 1, 2, 5, 10, 20, 50 or 100 µM peptides for 24 h. […]
Series [2] deals with normal cells (HaCat, BJ and NIH 3T3). The series is described as follows: Confocal laser scanning microscopy of FITC-labeled peptide uptake, normal cells. The format is cell-based, human, mouse. Particulars: FITC-labeled peptide 5 µM, 30 min, 37°C, live unfixed cells. How it is done: To investigate the cell-penetrating ability and the intracellular distribution of the internalized peptides, live confocal microscopy was performed on three cancer lines (HeLa, HCT116 and B16/F10) and three normal cell lines (HaCat, BJ and NIH 3T3). Briefly, cells (2×10^5) were plated on a glass coverslip placed in a 6-well plate, grown overnight, and then incubated with FITC-labeled peptides (5 µM for each cell line) for 30 min. The cells were then rinsed three times with phosphate buffered saline (PBS, pH 7.4), and mounted on microscope slides with fluorescence mounting solution (Dako Corp, Carpinteria, CA). Colocalization of BR2 with lysosomes was observed by using LysoTracker Red DND-99 (Molecular Probe, Eugene, OR). To avoid the effects of fixation artifacts, involving both methanol and paraformaldehyde, cells were not fixed, [27]. The distribution of FITC-labeled peptides was analyzed using a confocal scanning laser Zeiss LSM 510 microscope (Jena, Germany) equipped with a 40× and 20× objective. Fluorophores were excited with an argon laser (488 nm) for FITC and a HeNe laser (543 nm) for LysoTracker Red.
(B,C) In vitro cytotoxicity of peptides.

For series [3] the test system is unchanged. The series is described as follows: Flow cytometry of FITC-labeled peptide uptake, normal cells. The note with it: FITC-labeled peptide 10 µM, 30 min, 37°C, trypsin 1 mg/ml 10 min before FACS, 10,000 events. The format is cell-based, human, mouse. The method, then:
(§1) To evaluate the internalization of FITC-labeled peptides, HeLa cells were seeded onto 12-well plates at a density of 2×10^5 cells per well and incubated for 24 h. FITC-labeled peptides, at various concentrations ranging from […], were then incubated with the cells for 30 min at 37°C. To compare the cellular uptake of peptides, cancer and normal cells were treated with FITC-labeled peptides (each, 10 µM) and incubated for 30 min at 37°C. Following the incubation, cells were washed three times with ice-cold PBS to remove excess extracellular complexes. Next, the cells were treated with trypsin (1 mg/ml) for 10 min to remove any remaining peptides bound to the cell surface. After trypsinization, the cells were collected by centrifugation (1,000×g for 5 min), resuspended with 500 µl ice-cold 2% FBS/PBS containing propidium iodide (PI), and then immediately analyzed (10,000 events/sample) by fluorescence activated cell sorting (FACS).
(§2) For all of these experimental conditions, flow cytometry analyses were performed with live cells using a Becton Dickinson FACSCalibur flow cytometer (BD Biosciences, San Diego, CA). In each case, the fluorescence of 10,000 viable cells was acquired. Viable cells were gated based on a sideward and forward scatter. […] The statistical significance was evaluated by Student’s t-test at a 95% confidence interval. […]

Series [4] concerns cancer cells (HeLa, HCT116 and B16/F10). The format is cell-based, human, mouse. Particulars: flow cytometry. How it is done:
as §1, §2

A further series deals with HeLa cells. The format is cell-based, human. Particulars: FACS. How it is done:
as §1
To understand further the cell-penetrating mechanism of peptides, the effects of temperature and metabolic inhibitors were examined. To elucidate the temperature dependency, HeLa cells were incubated at 4°C for 30 min prior to the addition of the peptides. Next, cells were treated with FITC-labeled peptides (each, 5 µM) at 4°C for 30 min. For the energy-depletion study, HeLa cells were preincubated with sodium azide (NaN3, 10 mM) at 37°C for 1 h and then incubated with FITC-labeled peptides (each, 5 µM) at 37°C for 30 min.
To study the role of endocytosis in peptide uptake, cells were pretreated with several endocytosis inhibitors at 37°C for 1 h: (i) amiloride (5 mM), which is known to block macropinocytosis by inhibiting a sodium channel; (ii) nocodazole (100 ng/ml), which inhibits the clathrin-mediated pathway; and (iii) methyl-ß-cyclodextrin (MßCD, 5 mM), which inhibits lipid raft-mediated processes by depleting cholesterol from the plasma membrane. All inhibitors were purchased from Sigma (St. Louis, MO).
To examine the effects of negatively charged components on the cell surface for peptide internalization, HeLa cells were pretreated with gangliosides (monosialoganglioside GM3 from canine blood), heparin sulfate, or sialic acid (Neu5Ac, all from Sigma) (20 µg/ml) for 30 min. For the inhibition of ganglioside biosynthesis, cells were pretreated with D-threo-1-phenyl-2-hexadecanoyl amino-3-morpholino-1-propanol (PPMP, 5 µM) for 48 h.
For all of these experimental conditions, flow cytometry analyses were performed with live cells using a Becton Dickinson FACSCalibur flow cytometer (BD Biosciences, San Diego, CA). In each case, the fluorescence of 10,000 viable cells was acquired. Viable cells were gated based on a sideward and forward scatter. For data analysis, WinMDI software (Joe Trotter, Scripps Research Institute, La Jolla, CA) was used. The statistical significance was evaluated by Student’s t-test at a 95% confidence interval.
Figure 2 BR2 specifically penetrates cancer cell membranes in a concentration-dependent manner. (A) Analysis of the cell-penetrating efficiency of each peptide in different cell types by flow cytometry. FITC-labeled Tat, BR1 and BR2 peptides (10 µM) were added to different cell types: HeLa, HCT116 and B16/F10 cancer cells and HaCat, BJ and NIH 3T3 normal cells. After 30 min of incubation at 37°C, the FITC-positive cells were counted by flow cytometry. Values represent the percentage of fluorescence-positive cells in the total cell population. (B) Quantitative assessment of cell penetration of each peptide by flow cytometry. HeLa cells were incubated with FITC-labeled peptides at concentrations of 1, 2, 5, or 10 µM for 30 min at 37°C. Afterwards the cells were washed with cold PBS and harvested and cellular fluorescence was analyzed by flow cytometry. […] Prior to analysis, extracellular fluorescence of surface bound peptides was removed by a trypsin treatment (1 mg/ml for 10 min). […]

Take RAGLQFPVGRLLRRLLR [BR2]: the LDH leakage in series [1] (100 µM peptide, 0.2% Triton X-100 = 100%, n = 3) was about 17%; in series [1] (peptide concentrations below 70 µM), “not detected”. In series [2], the “cellular uptake (confocal microscopy)” value was “very poorly internalized”. Further, the “percentage of fluorescence-positive cells (cells that internalized peptide)” value in series [3] was 23–34%. In addition, the “transduction efficiency into cancer cells versus normal cells” value in series [4] is “about 4 fold”. Also, in the series on HeLa cells (FITC-labeled peptide 5 µM, 30 min at 4°C after preincubation at 4°C), the “decrease of cellular uptake at 4°C compared to 37°C” value was 88.5%. In the series on HeLa cells (MßCD 5 mM pretreatment 1 h 37°C, peptide 30 min 37°C, mean of three experiments), the “inhibition of penetration by methyl-ß-cyclodextrin (MßCD)” value is 44.6%. Besides, in the series with HeLa cells (NaN3 10 mM preincubation 1 h 37°C, then FITC-labeled peptide 5 µM 30 min 37°C), the “reduction of uptake by ATP depletion (sodium azide)” value was determined as 67.7%. In addition, in the series on HeLa cells (PPMP 5 µM pretreatment 48 h), the “effect of ganglioside synthesis inhibitor PPMP on peptide uptake” value was “significantly reduced”. The “inhibition of cellular uptake by amiloride” value in the series with HeLa cells (amiloride 5 mM pretreatment 1 h 37°C, peptide 30 min 37°C, mean of three experiments) was determined as 36.5%. Further, the “effect of exogenous gangliosides on peptide penetration” value with HeLa cells (gangliosides (GM3) 20 µg/ml, 30 min) is “partially inhibited”. For the same sequence, in the series on HeLa cells (heparin 20 µg/ml, 30 min), the “effect of exogenous heparin on peptide uptake” value is recorded as “almost no effect”. In the series on HeLa cells (nocodazole 100 ng/ml pretreatment 1 h 37°C, peptide 30 min 37°C), the “effect of nocodazole on peptide transduction” value was “negligible effect”. In the series with HeLa cells (sialic acid (Neu5Ac) 20 µg/ml, 30 min), the “effect of exogenous sialic acids on peptide penetration” value is “partially inhibited”.

The values are drawn from PMC3679022, “A Cancer Specific Cell-Penetrating Peptide, BR2, for the Efficient Delivery of an scFv into Cancer Cells” (PLoS ONE, 2013).
